Results: patent publication US20240174639A1, “PYRIDINE DERIVATIVES USEFUL AS HCN2 MODULATORS” (King's College London, priority 2021, published 2024)
Structures can show the parent of a compound that is named as a salt.

Key:
[1] = target: T1, HCN2 (Homo sapiens, UniProt Q9UL51); test: HCN2 assay using PatchXpress 7000A (Example 50A); format: cell-based; conditions: PatchXpress protocol (PX)
T1 sequence (Q9UL51 1-889): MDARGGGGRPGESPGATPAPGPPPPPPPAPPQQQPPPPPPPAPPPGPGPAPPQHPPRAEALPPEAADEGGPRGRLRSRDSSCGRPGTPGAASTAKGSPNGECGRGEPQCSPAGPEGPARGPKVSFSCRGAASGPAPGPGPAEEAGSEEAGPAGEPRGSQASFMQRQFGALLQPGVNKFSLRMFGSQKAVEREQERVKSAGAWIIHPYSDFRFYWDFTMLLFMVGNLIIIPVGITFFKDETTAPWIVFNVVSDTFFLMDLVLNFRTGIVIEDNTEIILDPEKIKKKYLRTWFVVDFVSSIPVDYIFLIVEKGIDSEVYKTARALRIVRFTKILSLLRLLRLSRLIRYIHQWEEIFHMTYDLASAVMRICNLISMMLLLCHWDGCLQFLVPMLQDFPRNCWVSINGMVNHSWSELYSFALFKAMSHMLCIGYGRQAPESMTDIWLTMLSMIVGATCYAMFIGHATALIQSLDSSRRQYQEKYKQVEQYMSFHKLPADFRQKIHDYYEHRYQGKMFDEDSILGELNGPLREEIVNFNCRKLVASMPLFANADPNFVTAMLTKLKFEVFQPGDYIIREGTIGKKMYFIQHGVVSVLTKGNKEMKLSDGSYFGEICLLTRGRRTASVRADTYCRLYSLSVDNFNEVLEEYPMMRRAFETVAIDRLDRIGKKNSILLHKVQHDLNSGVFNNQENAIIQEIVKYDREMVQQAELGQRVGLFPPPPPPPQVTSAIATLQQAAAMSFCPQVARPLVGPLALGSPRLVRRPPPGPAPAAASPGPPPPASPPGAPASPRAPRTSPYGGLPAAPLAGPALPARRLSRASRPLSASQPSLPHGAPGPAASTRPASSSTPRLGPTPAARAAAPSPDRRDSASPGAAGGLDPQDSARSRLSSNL
From the text: (§1) Solutions for recording HON currents were:
For HCN1 and HCN2, the pulse protocol involved stepping from a holding potential of −30 mV to −110 mV (see FIG. 1A) for 2 seconds to evoke the current. The membrane voltage was then stepped back to −30 mV for a further 8 seconds. This sequence was evoked repeatedly every 10 seconds throughout the experiment, starting prior to drug (Control A) and during cumulative additions of 5 increasing compound concentrations, then finally a 100% inhibiting concentration of cesium chloride (CsCl, 3 mM).
(§2) The peak inward current measured at the end of the pulse to −110 mV (HCN1 and HCN2) or −130 mV (HCN4) was measured and any leak current subtracted to calculate the HCN current. The HCN current amplitude was measured after each control or compound addition and normalized to the control amplitude (Control A).
(§3) All experiments were performed at room temperature (approximately 22° C.).
(§4) Each test compound concentration was applied to the cell for seven (7) minutes, at which point the next cumulative concentration was applied. 3 mM CsCl was applied to each cell for 2 minutes at the end of each experiment (Control B) to determine 100% inhibition level of the HCN current.

[2] = target: T2, HCN4 (Homo sapiens, UniProt Q9Y3Q4); test: HCN4 assay using PatchXpress 7000A (Example 50A); format: cell-based; conditions: PatchXpress protocol (PX)
T2 sequence (Q9Y3Q4 1-1203): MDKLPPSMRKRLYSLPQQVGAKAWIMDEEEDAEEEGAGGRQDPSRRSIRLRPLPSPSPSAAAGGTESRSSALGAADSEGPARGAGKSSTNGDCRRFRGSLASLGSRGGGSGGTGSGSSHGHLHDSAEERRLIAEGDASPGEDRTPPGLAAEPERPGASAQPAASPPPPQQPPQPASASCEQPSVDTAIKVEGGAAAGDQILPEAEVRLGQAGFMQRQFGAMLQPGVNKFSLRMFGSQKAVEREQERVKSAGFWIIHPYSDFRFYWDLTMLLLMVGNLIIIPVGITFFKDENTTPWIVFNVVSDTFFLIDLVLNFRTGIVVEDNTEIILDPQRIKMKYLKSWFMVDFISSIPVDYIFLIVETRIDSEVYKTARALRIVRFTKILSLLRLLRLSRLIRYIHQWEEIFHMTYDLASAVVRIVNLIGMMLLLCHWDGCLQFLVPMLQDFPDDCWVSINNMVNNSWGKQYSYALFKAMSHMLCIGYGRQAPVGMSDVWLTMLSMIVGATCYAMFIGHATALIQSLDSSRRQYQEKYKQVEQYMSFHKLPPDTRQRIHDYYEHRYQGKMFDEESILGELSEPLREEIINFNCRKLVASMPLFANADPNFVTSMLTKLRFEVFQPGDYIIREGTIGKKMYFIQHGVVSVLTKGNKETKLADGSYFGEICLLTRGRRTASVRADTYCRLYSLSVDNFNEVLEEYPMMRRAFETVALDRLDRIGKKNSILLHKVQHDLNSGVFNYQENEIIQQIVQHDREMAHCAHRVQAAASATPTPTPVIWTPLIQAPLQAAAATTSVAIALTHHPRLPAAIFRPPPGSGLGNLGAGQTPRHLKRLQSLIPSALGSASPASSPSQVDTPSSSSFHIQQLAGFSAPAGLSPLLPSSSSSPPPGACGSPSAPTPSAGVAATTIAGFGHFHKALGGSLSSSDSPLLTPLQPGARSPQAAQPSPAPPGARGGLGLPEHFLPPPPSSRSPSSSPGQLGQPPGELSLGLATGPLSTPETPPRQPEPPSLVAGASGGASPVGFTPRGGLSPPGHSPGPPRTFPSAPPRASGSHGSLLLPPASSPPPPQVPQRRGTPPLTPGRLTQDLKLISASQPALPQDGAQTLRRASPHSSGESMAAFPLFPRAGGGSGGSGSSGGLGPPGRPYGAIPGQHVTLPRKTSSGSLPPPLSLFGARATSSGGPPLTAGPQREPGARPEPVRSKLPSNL
Protocol: as §1
For HCN4, the pulse protocol involved stepping from a holding potential of −30 mV to −130 mV (see FIG. 1B) for 4 seconds to evoke the current.
as §2, §3, §4

Row | Structure (SMILES) | IC50 [1] | IC50 [2]
1 | N[C@@H](Cc1ccccn1)c1ccccc1-n1ncc2cc(Br)ccc21 [Example 1, (S)-1-[2-(5-Bromo-1H-indazol-1-yl)phenyl]-2-(pyridine-2-yl)ethane-1-amine hydrochloride] | 0.9 µM | 3.4 µM
2 | N#Cc1ccc2c(cnn2-c2ccccc2[C@@H](N)Cc2ccccn2)c1 [Example 3, (S)-1-{2-[1-Amino-2-(pyridine-2-yl)ethyl]-phenyl}-1H-indazole-5-carbonitrile hydro-chloride] | 3.5 µM | > 30 µM
3 | Cc1cccc(C[C@H](N)c2ncccc2-n2ncc3ccccc32)n1 [Example 5, (S)-1-[3-(1H-indazole-1-yl)pyridine-2-yl]-2-(6-methylpyridine-2-yl)ethan-1-amine hydrochloride] | 1.9 µM | > 30 µM
4 | N#Cc1cccc(C[C@H](N)c2ncccc2-n2ncc3ccccc32)n1 [Example 6, (S)-6-{2-[3-(1H-ind-azol-1-yl)pyridine-2-yl]-2-aminoethyl}pyridine-2-carbonitrile hydro-chloride] | 1.1 µM | 22.2 µM
5 | N[C@@H](Cc1ccccn1)c1ccccc1-n1ncc2cnccc21 [Example 7, (S)-1-[2-(1H-pyrazolo-[4,3-c]pyridine-1-yl)-phenyl]-2-(pyridine-2-yl)ethan-1-amine hydrochloride] | 7 µM | > 30 µM
6 | CN(C)C(=O)c1cccc(C[C@H](N)c2ncccc2-n2ncc3ccccc32)n1 [Example 8, (S)-6-{2-[3-(1H-ind-azol-1-yl)pyridine-2-yl]-2-aminoethyl}-N,N-dimethylpyridine-2-carboxamide hydro-chloride] | 28.1 µM | > 30 µM
7 | NC(=O)c1cccc(C[C@H](N)c2ncccc2-n2ncc3ccccc32)n1 [Example 9, (S)-6-{2-[3-(1H-ind-azol-1-yl)pyridine-2-yl]-2-aminoethyl}pyridine-2-carboxamide hydro-chloride] | 17.3 µM | > 30 µM
8 | N[C@@H](Cc1ncccc1F)c1ncccc1-n1ncc2ccccc21 [Example 10, (S)-1-[3-(1H-indazole-1-yl)pyridine-2-yl]-2-(3-fluoropyridine-2-yl)ethan-1-amine hydrochloride] | 0.08 µM | 4.2 µM
9 | Cc1ccc(F)c(C[C@H](N)c2ncccc2-n2ncc3ccccc32)n1 [Example 11, (S)-1-[3-(1H-indazole-1-yl)pyridine-2-yl]-2-(3-fluoro-6-methyl-pyridine-2-yl)ethan-1-amine hydrochloride] | 0.16 µM | –
10 | N[C@@H](Cc1cccc(-c2cn[nH]c2)n1)c1ncccc1-n1ncc2ccccc21 [Example 12, (S)-1-[3-(1H-indazole-1-yl)pyridine-2-yl]-2-[6-(1H-pyrazol-4-yl)-pyridine-2-yl)ethan-1-amine hydrochloride] | > 10 µM | –
11 | N[C@@H](Cc1cccc(OCCO)n1)c1ncccc1-n1ncc2ccccc21 [Example 13, (S)-2-[(6-{2-[3-(1H-Indazol-1-yl)pyridine-2-yl]-2-aminoethyl}-pyridine-2-yl)oxy]-ethan-1-ol hydro-chloride] | > 10 µM | –
12 | N[C@@H](Cc1cccc(CCO)n1)c1ncccc1-n1ncc2ccccc21 [Example 14, (S)-2-(6-{2-[3-(1H-Indazol-1-yl)pyridine-2-yl]-2-aminoethyl}-pyridine-2-yl)ethan-1-ol hydrochloride] | 3.7 µM | –

The remaining lines, values ahead:

Row | IC50 [1] | IC50 [2] | Structure (SMILES)
13 | 2.1 µM | 14.8 µM | CCc1cccc(C[C@H](N)c2ncccc2-n2ncc3ccccc32)n1 [Example 15, (S)-1-[3-(1H-indazole-1-yl)pyridine-2-yl]-2-(6-ethylpyridine-2-yl)-ethan-1-amine hydro-chloride]
14 | 0.13 µM | 2.1 µM | Cc1cccnc1C[C@H](N)c1ncccc1-n1ncc2ccccc21 [Example 16, (S)-1-[3-(1H-indazole-1-yl)pyridine-2-yl]-2-(3-methylpyridine-2-yl)ethan-1-amine hydrochloride]
15 | 3.3 µM | 14.7 µM | N[C@@H](Cc1cccc(F)n1)c1ncccc1-n1ncc2ccccc21 [Example 17, (S)-1-[3-(1H-indazole-1-yl)pyridine-2-yl]-2-(6-fluoropyridine-2-yl)ethan-1-amine hydrochloride]
16 | 0.5 µM | 11.7 µM | N[C@@H](Cc1ccc(F)cn1)c1ncccc1-n1ncc2ccccc21 [Example 18, (S)-1-[3-(1H-indazole-1-yl)pyridine-2-yl]-2-(5-fluoropyridine-2-yl)-ethan-1-amine hydro-chloride]
17 | 6.9 µM | – | NC(=O)c1ccc(F)c(C[C@H](N)c2ncccc2-n2ncc3ccccc32)n1 [Example 19, (S)-6-{2-[3-(1H-ind-azol-1-yl)pyridine-2-yl]-2-aminoethyl}-5-fluoropyridine-2-carboxamide hydro-chloride]
18 | 0.9 µM | 13 µM | Cc1nc(C[C@H](N)c2ncccc2-n2ncc3ccccc32)ccc1F [Example 20, (S)-1-[3-(1H-indazole-1-yl)pyridine-2-yl]-2-(5-fluoro-6-methyl-pyridine-2-yl)ethan-1-amine hydrochloride]
19 | – | 19.2 µM | N[C@@H](Cc1nc(CCO)ccc1F)c1ncccc1-n1ncc2ccccc21 [Example 24, (S)-2-(6-{2-[3-(1H-Indazol-1-yl)pyridine-2-yl]-2-aminoethyl}-5-fluoropyridine-2-yl)-ethan-1-ol hydrochloride]
20 | > 10 µM | – | NC(=O)c1nc(C[C@H](N)c2ncccc2-n2ncc3ccccc32)ccc1F [Example 27, (S)-6-{2-[3-(1H-ind-azol-1-yl)pyridine-2-yl]-2-aminoethyl}-3-fluoropyridine-2-carboxamide hydro-chloride]
21 | 2.6 µM | – | CN(C)C(=O)c1ccc(F)c(C[C@H](N)c2ncccc2-n2ncc3ccccc32)n1 [Example 29, (S)-6-{2-[3-(1H-ind-azol-1-yl)pyridine-2-yl]-2-aminoethyl}-5-fluoro-N,N-dimethylpyridine-2-carboxamide hydro-chloride]
22 | ~10 µM | – | CS(=O)(=O)c1cccc(C[C@H](N)c2ncccc2-n2ncc3ccccc32)n1 [Example 49, (S)-1-[3-(1H-indazole-1-yl)pyridine-2-yl]-2-(6-methylsulfonyl-pyridine-2-yl)ethan-1-amine hydrochloride]
